The results in this text go back to patent US20060029544A1, “Receptor-binding cyclic peptides and methods of use” (The Regents of the University of California Office of …, priority 2004, published 2006).

The test system of assay [1] is VUP melanoma cell line. Put plainly: Adhesion assay: [51Cr]-VUP cells to laminin. The assay is classed as cell-based. The settings on record: highest concentration (200 μM). The protocol: (§1) RGD peptides were plated at a maximum concentration of 200 μM and a minimum concentration of 2 nM. For each RGD peptide sequence, linear peptides (A), cyclic peptides (B), and 4-[^19F]-fluorobenzoyl cyclic peptides (C) were assayed. Each RGD peptide concentration was performed in quadruplicate and each experiment was repeated twice.
(§2) Plastic 96-well plates (Falcon 3912; Becton Dickinson) were coated with 50 μl substrate (10 μg/ml laminin or 5 μg/ml vitronectin). The plates were incubated at 37° C. in an 8% CO2 atmosphere for 1 hour. Unbound protein was flicked off and the plates were washed with phosphate buffered saline (PBS) and blocked with bovine serum albumin (0.1% w/v BSA)/PBS/0.1% sodium azide) for 1 hour. The plates were then washed with PBS, placed on a bed of ice and 25 μl of peptide was added to the wells.
Sodium [^51Cr] chromate was purchased from Amersham International, UK. The solution was made isotonic by the addition of 110 μl 10× Hanks buffered salt solution. 100 μl of this solution (3.7 MBq) was added to 5-10×10^6 cells in 500 μl of serum-containing growth medium. The suspension was incubated at 37° C. for 45 minutes with regular agitation to resuspend the cells. The cells were then washed and spun 3 times with serum-free E4 medium to remove any free [^51Cr]chromium. A trypan blue viability count was performed and the cells were diluted to the necessary volume in serum-free E4 medium (4×10^5 cells/ml).
25 μl (about 10,000 cells) were added to each quadruplicate well and the plates incubated at 37° C. in an 8% CO2 atmosphere for 1 hour. Unbound cells were flicked off and the plates were washed twice with PBS/BSA containing 1 mM CaCl2 and 0.5 mM MgCl2. The plates were dabbed dry and cut into individual wells. The radioactivity associated with each well was determined in a gamma counter (1261 Multigamma; Wallac, Sweden). Quadruplicate 25 μl samples of labeled cells were counted as 100% input values. To determine non-specific binding, the ability of cells to bind BSA-coated wells was also assessed. […]
(§3) The results were calculated as follows: [formula] […]

In assay [2] the test system is VUP melanoma cell line. Put plainly: Adhesion assay: [51Cr]-VUP cells to vitronectin. The assay is classed as cell-based. The note with it: 20 μM peptide. The protocol:
as §1, §2
Sodium [^51Cr] chromate was purchased from Amersham International, UK. […]
25 μl (about 10,000 cells) were added to each quadruplicate well and the plates incubated at 37° C. in an 8% CO2 atmosphere for 1 hour. […] The radioactivity associated with each well was determined in a gamma counter (1261 Multigamma; Wallac, Sweden). Quadruplicate 25 μl samples of labeled cells were counted as 100% input values. To determine non-specific binding, the ability of cells to bind BSA-coated wells was also assessed. […]
as §3

For the next assay, the target named is T1, α5β1 integrin (Homo sapiens, UniProt P05556+P08648).
T1 construct: chimeras comprising the extracellular domain of αvβ3, αvβ5, α5β1, and αIIbβ3 linked to the Fc domain of either mouse IgG; purchased Celltech plc (supplied, no catalogue number)
Put plainly: ELISA: soluble α5β1-hFc binding to immobilized 50 kDa fibronectin fragment in the presence of RGD peptides. The settings on record: 20 μM peptide. The text has this:
(§4) Four different soluble integrins were supplied by Celltech plc. Soluble forms of αvβ3, αvβ5, α5β1, and αIIbβ3 integrin were generated by constructing chimeras comprising the extracellular domain of αvβ3, αvβ5, α5β1, and αIIbβ3 linked to the Fc domain of either mouse IgG (αvβ3-mFc, αvβ5-mFc, and αIIbβ3-mFc) or human IgG (α5β1-hFc) as described by Stephens et al., Cell Adhes. Commun., 7:377-390 (2000) and Coe et al., J. Biol. Chem., 276:35854-35866 (2001). Since the four soluble integrin chimeras were supplied either as purified proteins (αvβ3-mFc and α5β1-hFc) or as unpurified hybridoma supernatants (αIIbβ3-mFc and αvβ5-mFc), it was necessary to use two types of ELISAs. […] In one type of ELISA (FIGS. 2A and 2B), the immobilized component is a 50 kDa fragment of fibronectin. In the second type of ELISA (FIGS. 2C and 2D), the immobilized component is a goat anti-mFc antibody that is used to capture chimeric proteins so that the RGD binding site of the integrin is maximally exposed. Each three-sided box in FIG. 2 represents a single well of a 96-well plate, and the components are listed in the sequence of their addition to the assay. The immobilized component at the bottom of the well is bound to the well by electrostatic interactions.
To analyze the affinity and selectively of RGD peptides for αvβ3 and α5β1, 96-well ELISA plates were coated with 100 μl of a 5 μg/ml of the 50 kDa fragment of fibronectin in PBS per well and left overnight at 4° C. The plates were washed with PBS using a Denley Wellwash 4 Mk 2. Washing was repeated twice with a 400 μl wash per well. 200 μ/well of blocking buffer (i.e., to prevent non-specific binding of proteins) was then added for 1 hour followed by a repeat washing with PBS. RGD peptides were then added at a maximum concentration of 200 μM and a preliminary screen was performed at three concentrations, 200,20, and 2 μM. 100 μl of an RGD peptide was added to each well and each assay was performed in triplicate. Purified soluble αvβ3-mFc or purified α5β1-hFc was diluted to 2 μg/ml and 15 ng/ml, respectively, in conjugate buffer and 100 μl was added to each well. The plates were incubated for 2 hours with shaking using a Luckham R100 Rotatest at approximately 150 rpm. After incubation, the plates were washed with PBS as previously described and a labeled antibody was added. For the αvβ3 assay, a horseradish peroxidase (HRP)-labeled F(ab′)2 fragment of goat anti-mouse IgG Fc was diluted 1:2000 in conjugate buffer and 100 μl was added to each well. For the α5β1 assay, an HRP-labeled F(ab′)2 fragment of goat anti-human IgG Fc was diluted 1:2000 in conjugate buffer and 100 μl was added to each well. Plates were incubated for 30 minutes with shaking followed by 2 washes with PBS. 100 μl of TMB substrate was added to each well and plates were shaken during a 10 minute color development. Plates were read using a plate spectrophotometer at 630 nm.
Two negative and two positive controls were used in both types of ELISAs. For example, the negative controls were wells that contained 50 μl of an active control peptide, integrin, and biotinylated ligand or 50 μl of the active control peptide and 50 μl of buffer. These negative control wells typically develop little to no color. […] These wells typically develop the maximum amount of color.
(§5) FIGS. 3-6 illustrate the percent binding of the vitronectin, fibronectin, or fibrinogen ligand to αvβ5, α5β1, αIIbβ3, or αvβ3 integrin in the presence of RGD peptides (i.e., linear (A), cyclic (B), or 4-[^19F]-fluorobenzoyl cyclic (C)) at different concentrations, with 100% maximum signal being the signal obtained in the absence of the peptide.
A general note: An ELISA detects its analyte on a solid surface through an enzyme-linked reagent.

A further assay deals with T2, αvβ3 integrin (Homo sapiens, UniProt P05106+P06756).
T2 construct: chimeras comprising the extracellular domain of αvβ3, αvβ5, α5β1, and αIIbβ3 linked to the Fc domain of either mouse IgG; purchased Celltech plc (supplied, no catalogue number)
Briefly: ELISA: soluble αvβ3-mFc binding to immobilized 50 kDa fibronectin fragment in the presence of RGD peptides. The note with it: 2 μM peptide.
Description: as §4
The plates were washed with PBS using a Denley Wellwash 4 Mk 2. Washing was repeated twice with a 400 μl wash per well. […] Plates were read using a plate spectrophotometer at 630 nm.
Two negative and two positive controls were used in both types of ELISAs.
as §5

T1 sequence (P08648 42-995 limits assumed): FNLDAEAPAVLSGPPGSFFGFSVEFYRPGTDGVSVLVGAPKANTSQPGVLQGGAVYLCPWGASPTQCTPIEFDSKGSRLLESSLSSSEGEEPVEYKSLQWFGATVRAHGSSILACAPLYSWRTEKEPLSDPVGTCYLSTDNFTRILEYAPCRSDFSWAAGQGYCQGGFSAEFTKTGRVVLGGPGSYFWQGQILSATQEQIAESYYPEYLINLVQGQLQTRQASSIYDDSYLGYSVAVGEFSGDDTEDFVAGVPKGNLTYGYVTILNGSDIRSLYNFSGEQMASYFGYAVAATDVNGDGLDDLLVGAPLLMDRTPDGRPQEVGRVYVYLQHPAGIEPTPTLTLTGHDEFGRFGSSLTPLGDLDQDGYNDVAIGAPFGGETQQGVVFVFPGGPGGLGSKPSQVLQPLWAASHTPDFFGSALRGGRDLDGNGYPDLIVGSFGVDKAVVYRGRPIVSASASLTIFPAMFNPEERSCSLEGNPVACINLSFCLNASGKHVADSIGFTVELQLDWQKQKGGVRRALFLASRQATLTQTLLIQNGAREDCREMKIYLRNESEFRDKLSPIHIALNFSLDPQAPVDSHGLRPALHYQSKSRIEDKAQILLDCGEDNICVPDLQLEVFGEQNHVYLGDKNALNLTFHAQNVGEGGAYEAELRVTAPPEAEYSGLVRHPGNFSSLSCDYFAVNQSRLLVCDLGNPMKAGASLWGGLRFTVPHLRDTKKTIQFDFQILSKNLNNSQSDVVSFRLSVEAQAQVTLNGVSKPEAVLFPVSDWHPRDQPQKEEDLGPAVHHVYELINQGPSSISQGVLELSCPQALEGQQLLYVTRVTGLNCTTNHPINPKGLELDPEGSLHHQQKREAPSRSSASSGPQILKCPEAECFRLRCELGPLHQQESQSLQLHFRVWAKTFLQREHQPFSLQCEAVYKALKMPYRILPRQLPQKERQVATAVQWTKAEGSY
T1 sequence (P05556 21-728 limits assumed): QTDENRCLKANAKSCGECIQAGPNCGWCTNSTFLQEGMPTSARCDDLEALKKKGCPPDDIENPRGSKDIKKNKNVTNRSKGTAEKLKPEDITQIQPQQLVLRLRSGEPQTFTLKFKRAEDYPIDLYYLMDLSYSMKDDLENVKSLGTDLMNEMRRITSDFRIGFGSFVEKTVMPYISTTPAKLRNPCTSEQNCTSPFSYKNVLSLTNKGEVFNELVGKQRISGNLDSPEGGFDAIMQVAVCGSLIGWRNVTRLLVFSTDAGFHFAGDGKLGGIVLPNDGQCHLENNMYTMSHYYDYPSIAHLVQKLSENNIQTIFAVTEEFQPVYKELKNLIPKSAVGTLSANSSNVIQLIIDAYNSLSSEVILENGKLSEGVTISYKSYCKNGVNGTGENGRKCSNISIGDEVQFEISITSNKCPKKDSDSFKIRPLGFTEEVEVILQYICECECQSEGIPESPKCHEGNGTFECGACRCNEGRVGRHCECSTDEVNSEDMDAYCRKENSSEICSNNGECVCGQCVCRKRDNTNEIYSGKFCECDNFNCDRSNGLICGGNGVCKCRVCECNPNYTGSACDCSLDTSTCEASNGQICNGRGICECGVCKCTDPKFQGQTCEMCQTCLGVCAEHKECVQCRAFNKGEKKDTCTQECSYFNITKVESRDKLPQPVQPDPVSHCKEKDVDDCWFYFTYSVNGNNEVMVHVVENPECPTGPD
T2 sequence (P06756 31-992 limits assumed): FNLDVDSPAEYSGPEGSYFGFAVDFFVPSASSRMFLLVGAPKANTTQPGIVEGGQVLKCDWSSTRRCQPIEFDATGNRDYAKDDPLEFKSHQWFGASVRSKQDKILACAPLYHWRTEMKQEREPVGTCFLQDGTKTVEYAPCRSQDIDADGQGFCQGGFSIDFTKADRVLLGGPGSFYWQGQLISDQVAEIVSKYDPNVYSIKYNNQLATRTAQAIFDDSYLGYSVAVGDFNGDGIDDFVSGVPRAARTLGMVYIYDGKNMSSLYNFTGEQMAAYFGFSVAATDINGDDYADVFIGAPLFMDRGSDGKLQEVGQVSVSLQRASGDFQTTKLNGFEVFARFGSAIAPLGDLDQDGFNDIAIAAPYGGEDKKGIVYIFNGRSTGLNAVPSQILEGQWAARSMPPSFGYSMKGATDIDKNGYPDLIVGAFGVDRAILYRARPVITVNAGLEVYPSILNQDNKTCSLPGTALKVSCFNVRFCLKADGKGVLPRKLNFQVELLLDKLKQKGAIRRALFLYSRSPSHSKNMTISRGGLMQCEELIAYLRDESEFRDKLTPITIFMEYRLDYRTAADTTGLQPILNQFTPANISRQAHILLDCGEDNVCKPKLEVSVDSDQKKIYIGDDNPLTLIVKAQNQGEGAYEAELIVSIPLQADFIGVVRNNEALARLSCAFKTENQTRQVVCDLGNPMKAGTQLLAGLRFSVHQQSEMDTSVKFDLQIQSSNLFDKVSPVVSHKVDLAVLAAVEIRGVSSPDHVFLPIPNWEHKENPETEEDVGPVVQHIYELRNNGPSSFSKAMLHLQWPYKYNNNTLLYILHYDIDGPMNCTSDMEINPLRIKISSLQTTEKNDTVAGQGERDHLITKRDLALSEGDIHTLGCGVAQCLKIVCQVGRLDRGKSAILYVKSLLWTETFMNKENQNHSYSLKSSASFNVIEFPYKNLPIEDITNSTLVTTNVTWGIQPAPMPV
T2 sequence (P05106 27-718 limits assumed): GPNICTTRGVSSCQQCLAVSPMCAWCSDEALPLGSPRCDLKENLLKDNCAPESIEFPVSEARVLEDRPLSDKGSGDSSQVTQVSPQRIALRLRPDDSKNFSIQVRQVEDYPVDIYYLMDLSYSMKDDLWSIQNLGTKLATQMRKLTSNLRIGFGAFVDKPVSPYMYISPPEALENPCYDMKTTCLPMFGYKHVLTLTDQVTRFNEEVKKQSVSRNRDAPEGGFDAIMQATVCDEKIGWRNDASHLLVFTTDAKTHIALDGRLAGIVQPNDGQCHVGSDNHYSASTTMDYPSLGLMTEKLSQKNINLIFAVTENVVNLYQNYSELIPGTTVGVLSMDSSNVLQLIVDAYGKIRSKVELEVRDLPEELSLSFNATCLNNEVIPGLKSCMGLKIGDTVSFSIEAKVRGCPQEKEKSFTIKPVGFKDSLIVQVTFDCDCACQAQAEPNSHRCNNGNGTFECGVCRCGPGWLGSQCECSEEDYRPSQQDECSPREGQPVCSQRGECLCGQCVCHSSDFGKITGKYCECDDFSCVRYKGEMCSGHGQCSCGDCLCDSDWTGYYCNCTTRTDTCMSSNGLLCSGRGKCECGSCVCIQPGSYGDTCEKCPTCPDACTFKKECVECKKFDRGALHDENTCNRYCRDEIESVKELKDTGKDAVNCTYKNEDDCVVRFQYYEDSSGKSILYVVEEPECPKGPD

Take RGDY(OMe)K [B7]: the “adhesion of [51Cr]-VUP cells to laminin, normalized to absence of peptide (100%)” value with VUP melanoma cell line [1] is listed as 46.89%±1.45%. Further, the “adhesion of [51Cr]-VUP cells to vitronectin, normalized to absence of peptide (100%)” value in the assay with VUP melanoma cell line [2] was 44.16%±1.71%. Also, the “fibronectin binding to α5β1, % of the maximum signal” value on α5β1 integrin turned out to be 48.4%. The “fibronectin binding to αvβ3, % of the maximum signal” value at αvβ3 integrin amounted to 6.6%.
